“Also recorded” adds a separate entry of the source.
Tests used:
[1] = Sustacal meal with intravenous GLIP infusion 1.2 pm/kg/min in remission phase Type I diabetes (Example 1); format: in vivo, human; details: IV GLIP 1.2 pm/kg/min for 120 min after Sustacal meal
Procedure: 7 subjects with remission phase Type I diabetes were studied after ingestion of a standardised meal of Sustacal (Upjohn) (delivering […]). Subjects continued their normal insulin treatment programme on the day prior to the test and, on the day of the test, omitted their morning insulin injection and arrived fasting at 8:00 am. […] Infusion was continued for 120 minutes. Blood levels of glucose, C-peptide, gastrin, glucagon and HPP were monitored by standard radioimmunoassay methods in samples taken before and at intervals during the study, up to 180 minutes. On another test day, subjects were given the Sustacal meal alone and the same analytes were similarly monitored.

[2] = Intravenous glucose infusion with intravenous GLIP in remission phase Type I diabetes (Example 2); format: in vivo, human; details: IV GLIP 1.2 pm/kg/min for 60 min with IV glucose 20 g over 60 min, FIG. 2
Procedure: Four subjects with remission phase Type I diabetes were studied during intravenous glucose infusion. Subjects prepared for the tests as described in Example 1, but received an intravenous infusion of glucose (20 g over 60 min. constant rate)instead of the Sustacal meal. […] Blood levels of glucose and C-peptide were monitored as in Example 1.

[3] = Sustacal meal with GLIP infusion 0.75 pm/kg/min in remission phase Type I diabetes (Example 3); format: in vivo, human; details: GLIP 0.75 pmol/kg/min for 120 min with Sustacal meal, versus saline infusion; FIG. 3
Procedure: The test was conducted as described in Example 1 and blood glucose and C-peptide levels were measured. On a further test day, the subjects were studied during saline infusion after a similar Sustacal meal.

[4] = Sustacal meal preceded by subcutaneous GLIP injection in normal volunteers (Example 4); format: in vivo, human; details: for delay in increase in blood levels of glucose, HPP, C-peptide and insulin: compared with the first dose
Procedure: 7 normal volunteers were studied after ingestion of a Sustacal meal either alone or immediately preceded by a subcutaneous injection of 1.00 μg GLIP.

[5] = Sustacal meal preceded by subcutaneous GLIP injection in Type I diabetic subjects (Example 5); format: in vivo, human; details: Type I diabetics, 100 μg GLIP subcutaneously before Sustacal meal
Excerpt: 7 Type I diabetic subjects were studied.

[6] = 50 μg GLIP plus 5 units insulin (half the usual dose) subcutaneously before Sustacal meal; one subject; FIG. 6 Panel A
Excerpt: One Type 1 diabetic subject was given GLIP along with insulin and the effects on post-prandial glycaemia observed. […] Blood levels of GLIP were monitored by a standard radioimmunoassay method.

## Glucagon-like peptide 1(7-36)amide [GLIP]
[1]
  blood levels of C-peptide: prevented a significant increase in blood levels of C-peptide
  plasma glucagon levels stimulated by the meal: prevented the mean rise in plasma glucagon levels
[1]; FIG. 1 Panel A
  control of blood glucose level after a meal: excellent control of blood glucose level
[1]; FIG. 1 Panel C
  pancreatic polypeptide (PP) response to meal: this response was absent during GLIP infusion
[1]; FIG. 1 Panel E
  gastrin response / gastrin levels: normal gastrin response; also recorded: not significantly affected
[2]
  control of blood glucose level: improved control of blood glucose level
  secretion of endogenous insulin: stimulated secretion of endogenous insulin
[3]
  C-peptide after meal: rise in C-peptide was similar to the control experiment
  blood glucose after meal: increase in glucose was less than in the control experiment
[4]; 50 μg GLIP
  delay in increase in blood levels of glucose, HPP, C-peptide and insulin: proportionally shorter
[4]; 200 μg GLIP
  delay in increase in blood levels of glucose, HPP, C-peptide and insulin: longer delays
[4]; subcutaneous GLIP (1.00 μg as printed elsewhere in the source) before Sustacal meal, FIG. 4
  increase in blood levels of glucose, HPP, C-peptide and insulin: A delay in increase
[5]; no morning insulin, FIG. 5 Panel A
  blood glucose levels compared to control: lowering of blood glucose levels
[5]; FIG. 5 Panel D
  pancreatic polypeptide (HPP) levels: delayed rise in pancreatic polypeptide (HPP) levels
[5]; FIG. 5 Panels B and C
  insulin secretion (C-peptide, insulin): no enhancement of insulin secretion over control levels
[6]
  blood glucose after standard meal (maximum): ≤ 8 mM

— patent US20020160008A1, “TREATMENT OF DIABETES” (priority 1994, published 2002)
